From ChEMBL document CHEMBL4184249, “Structural development of tetrachlorophthalimides as liver X receptor β (LXRβ)-selective agonists with improved aqueous solubility” (Bioorg Med Chem Lett, 2018) come the findings set out here.

Each structure is given as a SMILES string. ≈ marks a conversion by molar mass, not a printed value. Calls of active or inactive are those of the source. The calls are words filed in the database; no cut-off is given here. Some results are limits rather than exact numbers.

Data set [1] has as its target T1, Oxysterols receptor LXR-alpha (Homo sapiens) (UniProt Q13133).
T1 sequence (whole entry): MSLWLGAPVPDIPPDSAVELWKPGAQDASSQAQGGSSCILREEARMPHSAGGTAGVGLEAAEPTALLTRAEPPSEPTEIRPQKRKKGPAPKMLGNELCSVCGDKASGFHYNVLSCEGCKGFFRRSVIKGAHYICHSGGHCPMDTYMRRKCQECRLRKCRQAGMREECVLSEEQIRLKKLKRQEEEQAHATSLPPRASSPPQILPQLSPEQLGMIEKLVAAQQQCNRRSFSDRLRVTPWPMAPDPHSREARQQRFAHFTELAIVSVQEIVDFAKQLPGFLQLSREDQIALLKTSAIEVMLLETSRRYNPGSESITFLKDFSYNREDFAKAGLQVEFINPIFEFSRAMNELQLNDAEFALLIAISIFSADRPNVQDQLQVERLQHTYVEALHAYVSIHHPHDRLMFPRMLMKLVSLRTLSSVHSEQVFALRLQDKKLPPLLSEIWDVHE
Briefly: Agonist activity at human LXRalpha expressed in HEK293 cells co-expressing CMX-beta-galactosidase at 30 uM incubated for 16 hrs by luciferase reporter gene assay. The class given is cell-based.

Data set [2] addresses T2, Oxysterols receptor LXR-beta (Homo sapiens, UniProt P55055).
T2 sequence (P55055 whole entry): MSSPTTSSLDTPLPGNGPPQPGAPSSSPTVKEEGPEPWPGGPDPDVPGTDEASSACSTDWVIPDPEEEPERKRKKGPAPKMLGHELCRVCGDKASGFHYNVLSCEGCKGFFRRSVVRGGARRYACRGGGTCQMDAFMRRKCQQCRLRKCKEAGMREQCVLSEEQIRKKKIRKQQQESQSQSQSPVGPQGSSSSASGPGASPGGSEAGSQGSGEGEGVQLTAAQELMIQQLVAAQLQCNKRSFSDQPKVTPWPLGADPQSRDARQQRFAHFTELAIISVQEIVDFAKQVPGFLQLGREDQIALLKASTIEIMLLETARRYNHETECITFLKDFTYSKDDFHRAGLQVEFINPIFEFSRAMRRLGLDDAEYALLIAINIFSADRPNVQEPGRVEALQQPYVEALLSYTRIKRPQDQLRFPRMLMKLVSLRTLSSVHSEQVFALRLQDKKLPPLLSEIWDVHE
The experiment in a line: Agonist activity at human LXRbeta expressed in HEK293 cells co-expressing CMX-beta-galactosidase incubated for 16 hrs by luciferase reporter gene assay. The class given is cell-based. A general note: Reporter assays use an easily measured gene product as a stand-in for the process of interest.

The target in data set [3] is T3, Oxysterols receptor LXR-beta (Homo sapiens) (UniProt P55055).
T3 sequence (whole entry): T2 sequence (P55055 whole entry)
The experiment in a line: Agonist activity at human LXRbeta expressed in HEK293 cells co-expressing CMX-beta-galactosidase incubated for 16 hrs by luciferase reporter gene assay relative to T0901317. Type of data set: cell-based.

Data set [4] concerns the target T4, Oxysterols receptor LXR-alpha (Mus musculus) (UniProt Q9Z0Y9).
T4 sequence (whole entry): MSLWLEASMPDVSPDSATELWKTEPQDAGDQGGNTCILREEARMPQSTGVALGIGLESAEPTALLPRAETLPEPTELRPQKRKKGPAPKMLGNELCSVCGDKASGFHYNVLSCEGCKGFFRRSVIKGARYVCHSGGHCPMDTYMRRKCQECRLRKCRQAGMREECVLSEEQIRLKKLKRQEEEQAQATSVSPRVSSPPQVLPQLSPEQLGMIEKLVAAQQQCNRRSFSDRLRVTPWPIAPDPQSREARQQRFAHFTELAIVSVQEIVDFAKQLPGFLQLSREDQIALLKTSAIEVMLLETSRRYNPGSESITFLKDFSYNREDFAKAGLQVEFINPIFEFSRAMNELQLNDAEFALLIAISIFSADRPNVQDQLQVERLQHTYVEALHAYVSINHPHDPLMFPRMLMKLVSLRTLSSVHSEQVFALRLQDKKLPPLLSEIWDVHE
The experiment in a line: Agonist activity at mouse LXRalpha expressed in HEK293 cells co-expressing CMX-beta-galactosidase at 30 uM incubated for 16 hrs by luciferase reporter gene assay. The class given is cell-based.

Data set [5] addresses T5, Oxysterols receptor LXR-beta (Mus musculus, UniProt Q60644).
T5 sequence (Q60644 whole entry): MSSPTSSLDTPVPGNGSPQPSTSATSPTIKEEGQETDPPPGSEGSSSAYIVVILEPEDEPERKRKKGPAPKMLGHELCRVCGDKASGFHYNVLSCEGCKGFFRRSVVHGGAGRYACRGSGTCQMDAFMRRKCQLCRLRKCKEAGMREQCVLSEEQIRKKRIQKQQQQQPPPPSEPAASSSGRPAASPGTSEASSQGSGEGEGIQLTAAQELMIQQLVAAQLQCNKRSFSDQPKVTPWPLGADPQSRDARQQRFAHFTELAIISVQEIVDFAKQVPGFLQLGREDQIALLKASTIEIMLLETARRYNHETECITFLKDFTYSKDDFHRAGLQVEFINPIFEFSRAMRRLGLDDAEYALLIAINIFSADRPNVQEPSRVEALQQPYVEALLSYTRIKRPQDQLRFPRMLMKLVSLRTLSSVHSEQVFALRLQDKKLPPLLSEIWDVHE
The experiment in a line: Agonist activity at mouse LXRbeta expressed in HEK293 cells co-expressing CMX-beta-galactosidase incubated for 16 hrs by luciferase reporter gene assay. Type of data set: cell-based.

For data set [6], the target named is T6, Oxysterols receptor LXR-beta (Mus musculus) (UniProt Q60644).
T6 sequence (whole entry): T5 sequence (Q60644 whole entry)
The experiment in a line: Agonist activity at mouse LXRbeta expressed in HEK293 cells co-expressing CMX-beta-galactosidase incubated for 16 hrs by luciferase reporter gene assay relative to T0901317. Type of data set: cell-based.

A short description of data set [7]: Aqueous solubility of the compound in EtOH: 1/15 M phosphate buffer at pH 7.4 1:1 by HPLC method. Type of data set: physicochemical.
For data set [8], the target named is T3, Oxysterols receptor LXR-beta (Homo sapiens). Briefly: Agonist activity at LXRbeta in human THP1 cells assessed as increase in ABCA1 mRNA expression at 1 uM by real-time quantitative RT-PCR method. The class given is cell-based.
Data set [9] has the same target. The experiment in a line: Agonist activity at human LXRbeta expressed in HEK293 cells co-expressing CMX-beta-galactosidase incubated for 16 hrs at 30 uM by luciferase reporter gene assay relative to T0901317. Type of data set: cell-based.
Data set [10] has the same target. The experiment in a line: Agonist activity at human LXRbeta expressed in HEK293 cells co-expressing CMX-beta-galactosidase at 30 uM incubated for 16 hrs by luciferase reporter gene assay. The class given is cell-based.

As usually defined, the EC50 is the midpoint of the concentration-response curve. As for `O=C1c2c(Cl)c(Cl)c(Cl)c(Cl)c2C(=O)N1c1ccccc1/C=C/c1nccs1`, the outcome in data set [1] and in [4] was inactive. The EC50 in data set [2] is 3.61 µM; in data set [5], 2.93 µM. In addition, the Efficacy in [3] worked out at 151%; in data set [6], 22%.

Usually solubility stands for how much of the substance goes into solution per volume. Read a high solubility as much dissolved substance. In the case of `O=C1c2c(Cl)c(Cl)c(Cl)c(Cl)c2C(=O)N1c1ccccc1/C=C/c1ccccc1`, the outcome in [1] and in data set [4] was inactive. For the same compound, the EC50 in data set [2] came to 0.27 µM; in data set [5], 0.3 µM. Moreover, the Efficacy in data set [3] worked out at 143%; in data set [6] it was 26%. Besides, the solubility in [7] worked out at 3.6 ng/mL (≈ 7.77 nM). The outcome in data set [8] was Active.

On to `O=C1c2c(Cl)c(Cl)c(Cl)c(Cl)c2C(=O)N1c1ccccc1/C=C/c1cccnc1`, for which the outcome in data set [1] was inactive. Further, the EC50 in data set [2] was 4.96 µM. In [3], this compound gave an Efficacy of 141%.

For `O=C1c2c(Cl)c(Cl)c(Cl)c(Cl)c2C(=O)N1c1ccccc1Oc1ccccc1`, the outcome in data set [1] and in data set [4] was inactive. For the same compound, the EC50 in [2] stood at 8.98 µM. Further, in data set [3], the Efficacy worked out at 99%.

Take `O=C1c2c(Cl)c(Cl)c(Cl)c(Cl)c2C(=O)N1c1ccccc1/C=C\c1ccccc1`: the outcome in data set [1] was inactive. In [2], this compound displayed an EC50 of more than 10 µM. Also, the Efficacy in data set [9] was found to be 104%.

`O=C1c2c(Cl)c(Cl)c(Cl)c(Cl)c2C(=O)N1c1cccc2ccccc12`: the result in data set [1] and in data set [10] was inactive.

Consider `O=C1c2c(Cl)c(Cl)c(Cl)c(Cl)c2C(=O)N1c1ccccc1/C=C/c1ccsc1`, for which the result in data set [1] and in data set [4] was inactive. In addition, the values for the EC50 in data set [2] and in [5] were 0.915 µM and 0.82 µM, respectively. Moreover, the Efficacy in [3] stood at 133%; in data set [6] it was 23%.

In the case of `O=C1c2c(Cl)c(Cl)c(Cl)c(Cl)c2C(=O)N1c1ccccc1/C=C/c1ccncc1`, the result in data set [1] was inactive. Moreover, the concentration for a half-maximal effect (EC50) in data set [2] is more than 10 µM. The same compound came in with an Efficacy in data set [9] of 35%.

As to `O=C1c2c(Cl)c(Cl)c(Cl)c(Cl)c2C(=O)N1c1ccccc1/C=C/c1ccccn1`, in data set [1], the outcome was inactive. Also, the EC50 in data set [2] was found to be 4.77 µM. This compound also had an Efficacy in data set [3] of 148%.

With `O=C1c2c(Cl)c(Cl)c(Cl)c(Cl)c2C(=O)N1c1ccccc1Cc1ccccc1`, the outcome in data set [1] and in data set [4] was inactive. The same compound gave an EC50 in data set [2] of 8 µM. In [3], this compound returned an Efficacy of 109%.

Turning to `O=C1c2c(Cl)c(Cl)c(Cl)c(Cl)c2C(=O)N1c1ccccc1CCc1ccccc1`, the result in data set [1] was inactive. The response in data set [2] was half-maximal at 4.98 µM (EC50). The compound further displayed an Efficacy in data set [3] of 117%.

`O=C1c2c(Cl)c(Cl)c(Cl)c(Cl)c2C(=O)N1c1ccccc1-c1ccccc1`: the result in data set [1] was inactive. For the same compound, the EC50 in [2] stood at 1.73 µM. In addition, the Efficacy in data set [3] came to 153%.

In the case of `O=C1c2c(Cl)c(Cl)c(Cl)c(Cl)c2C(=O)N1c1ccccc1/C=C/c1ccco1`, in data set [1], the result was inactive. Also, the EC50 in data set [2] was 4.67 µM. Further, in data set [3], the Efficacy was found to be 167%.
